Where two headings read alike, the source gives them in different places. Values belong to the molecule of their own block, whether it stands above or below them.
Assays:
PI3Kα = molecular target: T1, PI3Kα (Homo sapiens, UniProt P42336); experiment: PI3K alpha Leadseeker SPA Assay; assay type: biochemical; settings: in at least one experimental run; read-out: IC50 against PI3Kα
T1 construct: His
Protocol: PI3K alpha Leadseeker SPA Assay
Compounds of the present invention were tested according to the following assays and found as inhibitors of PI3 kinases, particularly PI3Kα. The exemplified compounds were tested and found active against PI3Kα. The IC50's ranged from about 1 nM to 10 μM.
SPA imaging beads are microspheres containing scintillant which emit light in the red region of the visible spectrum. As a result, these beads are ideally suited to use with a CCD imager such as the Viewlux. The Leadseeker beads used in this system are polystyrene beads that have been coupled with polyethyleneimine. When added to the assay mixture, the beads absorb both the substrate (PIP2) and product (PIP3). Adsorbed P^33-PIP3 will cause an increase in signal, measured as ADUs (analog to digital units). This protocol details the use of the PEI-PS Leadseeker beads for assays using His-p110/p85 PI3K alpha.
Solid compounds are typically plated with 0.1 μl of 100% DMSO in all wells (except column 6 and 18) of a 384-well, flat bottom, low volume plate (Greiner 784075). The compounds are serially diluted (3-fold in 100% DMSO) across the plate from column 1 to column 12 and column 13 to column 24 and leave column 6 and 18 containing only DMSO to yield 11 concentrations for each test compound.
The assay buffer contains MOPS (pH 6.5), CHAPS, and DTT. PI3K alpha and PIP2 (L-alpha-D-myo-Phosphatidylinositol 4,5-bisphosphate [P1(4,5)P2]3-O-phospho linked, D(+)-sn-1,2-di-O-octanoylglyceryl, CellSignals #901) are mixed and incubated in the plate with compound for 30 min prior to starting the reaction with the addition of P^33-ATP and MgCl2 (reagents added using Zoom). Enzyme-free wells (column 18) are typically done to determine the low control. PEI-PS Leadseeker beads in PBS/EDTA/CHAPS are added (by Multidrop) to quench the reaction, and the plates are allowed to incubate for at least one hour (typically overnight) before centrifugation. The signal is determined using a Viewlux detector and is then imported into curve fitting software (Activity Base) for construction of concentration response curves. The percent inhibition of activity was calculated relative to high controls (C1, 0.1 μl DMSO in column 6, rows A-P)) and low controls (C2, 5 μl of 40 uM PIP2 in buffer in column 18, rows A-P) using, 100*(1−(U1−C2)/(C1-C2)). The concentration of test compound yielding 50% inhibition was determined using the equation, y=((Vmax*x)/(K+x))+Y2, where “K” was equal to the IC50. The IC50 values were converted to pIC50 values, i.e., −log IC50 in Molar concentration.

Class I PI3-kinases = settings: cited from earlier work
CK2 protein kinase = settings: read-out: inhibition of CK2 protein kinase; cited from earlier work
neutrophils [1] = settings: cited from earlier work
neutrophils [2] = settings: treatment of neutrophils; Thelen et al. 1994; cited from earlier work

T1 sequence (P42336 whole entry): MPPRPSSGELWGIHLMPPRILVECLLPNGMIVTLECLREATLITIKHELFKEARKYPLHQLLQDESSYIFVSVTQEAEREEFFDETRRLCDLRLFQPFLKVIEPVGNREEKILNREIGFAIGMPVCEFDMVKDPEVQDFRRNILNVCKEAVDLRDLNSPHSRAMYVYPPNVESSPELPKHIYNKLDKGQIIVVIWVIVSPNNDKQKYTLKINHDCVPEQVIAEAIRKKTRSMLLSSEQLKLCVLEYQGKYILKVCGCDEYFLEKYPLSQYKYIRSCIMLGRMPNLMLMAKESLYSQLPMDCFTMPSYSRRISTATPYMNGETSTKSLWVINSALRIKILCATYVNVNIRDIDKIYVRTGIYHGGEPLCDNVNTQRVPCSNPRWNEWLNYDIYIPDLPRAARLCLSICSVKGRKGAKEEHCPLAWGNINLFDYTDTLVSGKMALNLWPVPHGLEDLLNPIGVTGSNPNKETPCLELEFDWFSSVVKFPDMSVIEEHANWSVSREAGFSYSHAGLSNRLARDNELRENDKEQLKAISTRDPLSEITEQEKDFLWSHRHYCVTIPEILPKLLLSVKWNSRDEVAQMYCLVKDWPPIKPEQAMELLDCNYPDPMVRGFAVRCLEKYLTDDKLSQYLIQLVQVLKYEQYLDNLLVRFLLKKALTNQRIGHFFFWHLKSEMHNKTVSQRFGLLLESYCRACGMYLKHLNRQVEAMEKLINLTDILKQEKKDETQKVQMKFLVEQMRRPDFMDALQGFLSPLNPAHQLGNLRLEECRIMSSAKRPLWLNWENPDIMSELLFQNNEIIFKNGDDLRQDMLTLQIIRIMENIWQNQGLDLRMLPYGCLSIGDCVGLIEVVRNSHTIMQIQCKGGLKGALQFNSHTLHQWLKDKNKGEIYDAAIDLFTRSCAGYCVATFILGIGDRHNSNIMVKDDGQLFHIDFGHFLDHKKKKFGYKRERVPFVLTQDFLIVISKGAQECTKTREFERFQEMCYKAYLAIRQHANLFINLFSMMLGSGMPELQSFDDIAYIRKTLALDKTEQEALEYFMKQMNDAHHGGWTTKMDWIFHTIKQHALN
T1 sequence (P27986 whole entry partner): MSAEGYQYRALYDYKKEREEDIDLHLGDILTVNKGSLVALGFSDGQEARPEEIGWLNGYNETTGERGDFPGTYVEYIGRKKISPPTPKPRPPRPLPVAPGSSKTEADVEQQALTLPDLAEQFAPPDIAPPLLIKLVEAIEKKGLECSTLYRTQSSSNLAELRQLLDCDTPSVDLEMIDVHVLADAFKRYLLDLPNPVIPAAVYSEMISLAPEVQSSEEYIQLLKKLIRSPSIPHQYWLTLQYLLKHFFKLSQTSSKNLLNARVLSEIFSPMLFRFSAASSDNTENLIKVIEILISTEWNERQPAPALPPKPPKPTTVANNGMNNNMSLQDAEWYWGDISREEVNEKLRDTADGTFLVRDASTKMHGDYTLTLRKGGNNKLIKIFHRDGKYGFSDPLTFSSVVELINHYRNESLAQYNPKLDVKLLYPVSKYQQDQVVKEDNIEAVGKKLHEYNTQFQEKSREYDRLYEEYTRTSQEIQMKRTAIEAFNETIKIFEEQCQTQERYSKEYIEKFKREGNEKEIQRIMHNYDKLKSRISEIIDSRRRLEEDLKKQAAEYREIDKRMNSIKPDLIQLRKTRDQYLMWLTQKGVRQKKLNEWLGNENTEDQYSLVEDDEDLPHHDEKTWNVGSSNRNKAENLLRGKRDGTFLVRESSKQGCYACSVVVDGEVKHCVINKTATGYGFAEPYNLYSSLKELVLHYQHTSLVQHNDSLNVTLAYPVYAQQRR

Structure (SMILES): NS(=O)(=O)c1cncc(-c2ccc3nccc(-c4cccc(OC(F)(F)F)c4)c3n2)c1 [Example 9, 5-(8-{3-[(trifluoromethyl)oxy]phenyl}-1,5-naphthyridin-2-yl)-3-pyridinesulfonamide]
IC50 (PI3Kα): 27 nM

Structure (SMILES): OCc1ccc(-c2ccc3nccc(-c4ccncc4)c3n2)o1 [Example 1, {5-[8-(4-pyridinyl)-1,5-naphthyridin-2-yl]-2-furanyl}methanol]
IC50 (PI3Kα): 40 nM

Structure (SMILES): O=c1cc(N2CCOCC2)oc2c(-c3ccccc3)cccc12 [LY294002]
IC50 (Class I PI3-kinases; Fruman et al. 1998, read-out: IC50 against each of these PI3-kinases): 15000 to 20000 nM
IC50 (CK2 protein kinase): 5000 to 10000 nM
neutrophil migration (neutrophils [1]): block
superoxide release (neutrophils [1]): block

Structure (SMILES): CN(C)S(=O)(=O)c1cc(-c2ccc3nccc(-c4ccncc4)c3n2)cnc1N [Example 2, 2-amino-N,N-dimethyl-5-[8-(4-pyridinyl)-1,5-naphthyridin-2-yl]-3-pyridinesulfonamide]
IC50 (PI3Kα): 3 nM

Structure (SMILES): COC[C@H]1OC(=O)c2coc3c2[C@@]1(C)C1=C(C3=O)[C@@H]2CCC(=O)[C@@]2(C)C[C@H]1OC(C)=O [wortmannin]
IC50 (Class I PI3-kinases; wortmannin, read-out: IC50 against each of the various Class I PI3-kinases): 1 to 10 nM
fMLP-induced respiratory burst response (neutrophils [2]): prevents the fMLP-induced respiratory burst response
neutrophil migration (neutrophils [1]): block
superoxide release (neutrophils [1]): block

The remaining molecules from weak to strong by IC50 (PI3Kα), led by results:

IC50 (PI3Kα): 50 nM
Structure (SMILES): CN1CCN(c2ccnc3ccc(-c4cncc(S(=O)(=O)Nc5ccc(F)cc5F)c4)nc23)CC1 [Example 32, N-(2,4-difluorophenyl)-5-[8-(4-methyl-1-piperazinyl)-1,5-naphthyridin-2-yl]-3-pyridinesulfonamide]

IC50 (PI3Kα): 31 nM
Structure (SMILES): c1ccc(-c2n[nH]cc2-c2ccc3nccc(-c4ccncc4)c3n2)cc1 [Example 5, 2-(3-phenyl-1H-pyrazol-4-yl)-8-(4-pyridinyl)-1,5-naphthyridine]

IC50 (PI3Kα): 6 nM
Structure (SMILES): CS(=O)(=O)Nc1ccc(-c2ccnc3ccc(-c4cncc(S(N)(=O)=O)c4)nc23)cc1 [Example 11, 5-(8-{4-[(methylsulfonyl)amino]phenyl}-1,5-naphthyridin-2-yl)-3-pyridinesulfonamide]
